20 compounds from patent publication US20240067668A1, “HETEROARYL DERIVATIVE COMPOUND AND USE THEREOF” (VORONOI INC., priority 2020, published 2024) can be followed below.

In assay [1] the test system is BaF3-EGFR (Del19/T790M/C797S) cells. Briefly: Inhibitory activity on Ba/F3 cell proliferation (CellTiter-Glo, 72 hours). The class given is cell-based. The note with it: Ba/F3 cells expressing EGFR Del19/T790M/C797S. The method, then:
(§1) The following experiments were performed to evaluate the inhibitory activity of the compound represented by Chemical Formula 1 according to the present invention on the proliferation of Ba/F3 cells expressing EGFR mutants.
(§2) BaF3-EGFR (WT) and BaF3-EGFR (Del19/T790M/C797S) cells were seeded in a clear bottom white 96-well plate at a density of 3×10^3/100 μl/well, and then 0.5 μl/well of the culture medium, containing the compounds at 12 concentrations (0.00001-2 mM) serially diluted in 3 folds and the DMSO control, was added to a final concentration of 0.00005-10 μM, followed by culturing in a 37° C. CO2 incubator for 72 hours. After 72 hours, the plates treated with the compounds were taken out, treated with 100 μl/well of CellTiter-Glo® 2.0 Assay (Promega) solution, and mixed well. After mixing well at room temperature for about 10 minutes, […] was measured using a microplate reader. As to Data, GI50 (μM) values were calculated using GraphPad Prism 8.3.0 (GraphPad software Inc., San Diego) as percentages in proportion to vehicle-based treated cells. The result values were calculated as a cell growth rate (%) compared to the control group. A graph was created using the GraphPad Prism version 5.0 program, and GI50 (μM) values were calculated.

For assay [2], the system named is BaF3-EGFR (WT) cells. The assay is described as above. The class given is cell-based. Particulars: Ba/F3 cells expressing EGFR WT. The method, then:
as §1, §2

Turning to `COc1cc(N2CCN(C)CC2)c(-c2cnn(C)c2)cc1Nc1nc(Nc2ccc3nccnc3c2P(C)(C)=O)c2c(C(F)(F)F)c[nH]c2n1` [Example 53, (6-((2-((2-methoxy-5-(1-methyl-1H-pyrazol-4-yl)-4-(4-methyl-piperazin-1-yl)phenyl)amino)-5-(trifluoro-methyl)-7H-pyrrolo[2,3-d]pyrimidin-4-yl)amino)quinoxalin-5-yl)dimethyl-phosphine oxide], the GI50 in assay [1] and in assay [2] was greater than 0.1 µM each time.

As for `Cc1cc(Nc2nc(Nc3ccc4nccnc4c3P(C)(C)=O)c3cc[nH]c3n2)c(OCC(F)(F)F)cc1N1CCC(N2CCOCC2)CC1` [Example 12, dimethyl (6-((2-((5-methyl-4-(4-morpholino-piperidin-1-yl)-2-(2,2,2-trifluoroethoxy)phenyl)amino)-7H-pyrrolo[2,3-d]pyrimidin-4-yl)amino)quinoxalin-5-yl) phosphineoxide], the GI50 in assay [1] and in assay [2] was greater than 0.1 µM throughout.

As for `COc1cc(N2CCC(N3CCN(C)CC3)CC2)ccc1Nc1nc(Nc2ccc3nccnc3c2P(C)(C)=O)c2cc[nH]c2n1` [Example 57, (6-((2-((2-methoxy-4-(4-(4-methylpiperazin-1-yl)piperidin-1-yl)phenyl)amino)-7H-pyrrolo[2,3-d]pyrimidin-4-yl)amino)quinoxalin-5-yl)dimethyl-phosphine oxide], the concentration for 50% growth inhibition (GI50) in assay [1] and in assay [2] was 0.05 to 0.1 µM in each case.

`CN1CCN(c2c(-c3cnn(C)c3)cc(Nc3nc(Nc4ccc5nccnc5c4P(C)(C)=O)c4cc[nH]c4n3)c3c2OCCO3)CC1` [Example 130, dimethyl (6-((2-((7-(1-methyl-1H-pyrazol-4-yl)-8-(4-methylpiperazin-1-yl)-2,3-dihydrobenzo [b][1,4]dioxin-5-yl)amino)-7H-pyrrolo[2,3-d]pyrimidin-4-yl)amino)quinoxalin-5-yl)phosphine oxide]: the concentration for 50% growth inhibition (GI50) is no more than 0.05 µM in assay [1] and greater than 0.1 µM in assay [2].

Regarding `COc1cc(N2CCC(N3CCN(C)CC3)CC2)cnc1Nc1cc(Nc2ccc3nccnc3c2P(C)(C)=O)c2cc[nH]c2n1` [Example 65, (6-((6-((3-methoxy-5-(4-(4-methylpiperazin-1-yl)piperidin-1-yl)pyridin-2-yl)amino)-1H-pyrrolo[2,3-b]pyridin-4-yl)amino)quinoxalin-5-yl)dimethyl-phosphine oxide], the GI50 in assay [1] and in assay [2] was greater than 0.1 µM in each case.

Take `Cc1cc(Nc2nc(Nc3ccc4nccnc4c3P(C)(C)=O)c3cc[nH]c3n2)c2c(c1N1CCN(C)CC1)CCO2` [Example 121, dimethyl (6-((2-((5-methyl-4-(4-methylpiperazin-1-yl)-2,3-dihydrobenzo-furan-7-yl)amino)-7H-pyrrolo[2,3-d]pyrimidin-4-yl)amino)quinoxalin-5-yl)phosphine oxide]: the 50% growth inhibitory concentration (GI50) in assay [1] and in assay [2] was greater than 0.1 µM each time.

With `COc1cc(N2CCC(N3CCN(C)CC3)CC2)c(C(C)C)cc1Nc1nc(Nc2ccc3nccnc3c2P(C)(C)=O)c2cc[nH]c2n1` [Example 67, (6-((2-((5-isopropyl-2-methoxy-4-(4-(4-methylpiperazin-1-yl)piperidin-1-yl)phenyl)amino)-7H-pyrrolo[2,3-d]pyrimidin-4-yl)amino)quinoxalin-5-yl)dimethyl-phosphine oxide], the concentration for 50% growth inhibition (GI50) in assay [1] and in assay [2] was greater than 0.1 µM in each case.

With `CN1CCN(C2CCN(c3ccc(Nc4nc(Nc5ccc6nccnc6c5P(C)(C)=O)c5cc[nH]c5n4)cc3)CC2)CC1` [Example 58, dimethyl (6-((2-((4-(4-(4-methylpiperazin-1-yl)piperidin-1-yl)phenyl)amino)-7H-pyrrolo[2,3-d]pyrimidin-4-yl)amino)quinoxalin-5-yl)phosphine oxide], the 50% growth inhibitory concentration (GI50) is 0.05 to 0.1 µM in assay [1] and greater than 0.1 µM in assay [2].

In the case of `COc1cc(N2CCN(C3CC3)CC2)c(-c2cnn(C)c2)cc1Nc1nc(Nc2ccc3nccnc3c2P(C)(C)=O)c2cc[nH]c2n1` [Example 42, (6-((2-((4-(4-cyclopropyl-piperazin-1-yl)-2-methoxy-5-(1-methyl-1H-pyrazol-4-yl)phenyl)amino)-7H-pyrrolo[2,3-d]pyrimidin-4-yl)amino)quinoxalin-5-yl)dimethyl-phosphine oxide], the concentration for 50% growth inhibition (GI50) was no more than 0.05 µM in assay [1] and greater than 0.1 µM in assay [2].

Take `COc1cc(N2CCN(C)CC2)c(-c2cnn(C)c2)cc1Nc1nc(Nc2ccc3nccnc3c2P(C)(C)=O)c2c(C#N)c[nH]c2n1` [Example 52]: the GI50 in assay [1] and in assay [2] was greater than 0.1 µM in each case.

As for `COc1cc(N2CCN(C)CC2)c(-c2cnn(C(C)C)c2)cc1Nc1nc(Nc2ccc3nccnc3c2P(C)(C)=O)c2cc[nH]c2n1` [Example 49, (6-((2-((5-(1-isopropyl-1H-pyrazol-4-yl)-2-methoxy-4-(4-methyl-piperazin-1-yl)phenyl)amino)-7H-pyrrolo[2,3-d]pyrimidin-4-yl)amino)quinoxalin-5-yl)dimethyl-phosphine oxide], the concentration for 50% growth inhibition (GI50) in assay [1] and in assay [2] was greater than 0.1 µM in each case.

As for `COc1cc(N2CCC(N3CCN(C)CC3)CC2)c(C)cc1Nc1nc(Nc2ccc3nccnc3c2P(C)(C)=O)c2sccc2n1` [Example 59, (6-((2-((2-methoxy-5-methyl-4-(4-(4-methylpiperazin-1-yl)piperidin-1-yl)phenyl)amino)thieno [3,2-d]pyrimidin-4-yl)amino)quinoxalin-5-yl)dimethyl-phosphine oxide], the GI50 in assay [1] and in assay [2] was greater than 0.1 µM each time.

For `COc1cc(N2CCC(N3CCN(C)CC3)CC2)ccc1Nc1cc(Nc2ccc3nccnc3c2P(C)(C)=O)c2cc[nH]c2n1` [Example 64, (6-((6-((2-methoxy-4-(4-(4-methylpiperazin-1-yl)piperidin-1-yl)phenyl)amino)-1H-pyrrolo[2,3-b]pyridin-4-yl)amino)quinoxalin-5-yl)dimethyl-phosphine oxide], the GI50 in assay [1] and in assay [2] was greater than 0.1 µM each time.

In the case of `CN1CCN(c2cc(OCC(F)(F)F)c(Nc3nc(Nc4cnc5ccccc5c4P(C)(C)=O)c4cc[nH]c4n3)cc2-c2cnn(C)c2)CC1` [Example 14, dimethyl (3-((2-((5-(1-methyl-1H-pyrazol-4-yl)-4-(4-methylpiperazin-1-yl)-2-(2,2,2-trifluoroethoxy)phenyl)amino)-7H-pyrrolo[2,3-d]pyrimidin-4-yl)amino)quinolin-4-yl)phosphine oxide], the GI50 in assay [1] and in assay [2] was greater than 0.1 µM throughout.

As to `COc1cc(N2CCC(N3CCN(C)CC3)CC2)c(C)cc1Nc1cc(Nc2ccc3nccnc3c2P(C)(C)=O)c2cc[nH]c2n1` [Example 63, (6-((6-((2-methoxy-5-methyl-4-(4-(4-methylpiperazin-1-yl)piperidin-1-yl)phenyl)amino)-1H-pyrrolo[2,3-b]pyridin-4-yl)amino)quinoxalin-5-yl)dimethyl-phosphine oxide], the GI50 in assay [1] and in assay [2] was greater than 0.1 µM each time.

As for `COc1cc(N2CCN(C(C)(C)CF)CC2)c(-c2cnn(C)c2)cc1Nc1nc(Nc2ccc3nccnc3c2P(C)(C)=O)c2cc[nH]c2n1` [Example 109, (6-((2-((4-(4-(1-fluoro-2-methylpropan-2-yl)piperazin-1-yl)-2-methoxy-5-(1-methyl-1H-pyrazol-4-yl)phenyl)amino)-7H-pyrrolo[2,3-d]pyrimidin-4-yl)amino)quinoxalin-5-yl)dimethyl-phosphine oxide], the 50% growth inhibitory concentration (GI50) is no more than 0.05 µM in assay [1] and greater than 0.1 µM in assay [2].

For `CN1CCN(c2c(-c3cnn(C)c3)cc(Nc3nc(Nc4ccc5nccnc5c4P(C)(C)=O)c4cc[nH]c4n3)c3c2OCO3)CC1` [Example 129, dimethyl (6-((2-((6-(1-methyl-1H-pyrazol-4-yl)-7-(4-methylpiperazin-1-yl)benzo[d] [1,3]dioxol-4-yl)amino)-7H-pyrrolo[2,3-d]pyrimidin-4-yl)amino)quinoxalin-5-yl)phosphine oxide], the 50% growth inhibitory concentration (GI50) in assay [1] was no more than 0.05 µM; in assay [2] it was greater than 0.1 µM.

On to `Cc1cc(Nc2nc(Nc3ccc4nccnc4c3P(C)(C)=O)c3cc[nH]c3n2)c(OCC(F)(F)F)cc1N1CCOCC1` [Example 11, dimethyl (6-((2-((5-methyl-4-morpholino-2-(2,2,2-trifluoroethoxy)phenyl)amino)-7H-pyrrolo[2,3-d]pyrimidin-4-yl)amino)quinoxalin-5-yl) phosphineoxide], for which the concentration for 50% growth inhibition (GI50) in assay [1] and in assay [2] was greater than 0.1 µM each time.

Regarding `CN1CCN(c2ccc(Nc3nc(Nc4ccc5nccnc5c4P(C)(C)=O)c4cc[nH]c4n3)c(OCC(F)(F)F)c2)CC1` [Example 7, dimethyl (6-((2-((4-(4-methylpiperazin-1-yl)-2-(2,2,2-trifluoroethoxy)phenyl)amino)-7H-pyrrolo[2,3-d]pyrimidin-4-yl)amino)quinoxalin-5-yl)phosphine oxide], the GI50 in assay [1] and in assay [2] was greater than 0.1 µM in each case.

Take `Cn1cc(-c2cc(Nc3nc(Nc4ccc5nccnc5c4P(C)(C)=O)c4cc[nH]c4n3)ccc2N2CCC(N3CCOCC3)CC2)cn1` [Example 40, dimethyl (6-((2-((3-(1-methyl-1H-pyrazol-4-yl)-4-(4-morpholino-piperidin-1-yl)phenyl)amino)-7H-pyrrolo[2,3-d]pyrimidin-4-yl)amino)quinoxalin-5-yl) phosphinexide]: the GI50 in assay [1] was no more than 0.05 µM; in assay [2], 0.05 to 0.1 µM.
